Test results as given in patent publication US20200397795A1, “PROPHYLACTIC TREATMENT OF VENOUS THROMBOEMBOLISM” (JANSSEN PHARMACEUTICALS, INC., priority 2019, published 2020).
Like-named read-outs stand apart in the source and are kept apart here.

Experiments:
[1] = test system: symptomatic VTE and VTE-related death in high-risk, medically ill subjects; assay: MARINER (Study 2): efficacy of rivaroxaban vs placebo for 45 days post-hospital discharge; format: in vivo, human; parameters: Primary efficacy outcome, absolute difference vs placebo / Primary efficacy outcome, relative risk reduction vs placebo: concentration or dose not given beside the values; conditions: for Primary efficacy outcome (symptomatic VTE and VTE-related death), n/N (%): CEC adjudicated
Excerpt: The primary objective of Study 2 (MARINER) was to assess the efficacy and safety of rivaroxaban, compared with placebo in the prevention of symptomatic venous thromboembolism (VTE; lower extremity deep vein thrombosis [DVT] and non-fatal pulmonary embolism [PE]) and VTE-related death (death due to PE or death in which PE could not be ruled out as the cause) post-hospital discharge in high-risk, medically ill subjects.
This was a multicenter, prospective, randomized, double-blind, placebo-controlled, event-driven study conducted in multiple geographic regions (North America, South America, Eastern Europe, Western Europe, and Other locations) that evaluated rivaroxaban, compared with placebo, in the prevention of symptomatic VTE events and VTE-related deaths for a period of 45 days post-hospital discharge in high-risk, medically ill subjects. The study consisted of a screening phase, a 45-day double-blind treatment phase, and a 30-day safety follow-up period (which was also the end of study [EOS]). The total duration for a subject who completed the study (including the safety follow-up period) after randomization was 75 (±5) days.
The index hospitalization was at least 3 and no more than 10 consecutive days in duration. […] Subjects received thromboprophylaxis during the index hospitalization with low molecular weight heparin (LMWH) or unfractionated heparin (UFH).
Randomization occurred on the same day or the day after the subject left the hospital, and occurred at the hospital, clinic, or other discharge destination. Eligible subjects were to be randomly assigned (1:1) by strata (by creatinine clearance [CrCl] level [≥30-<50 mL/min versus ≥50 mL/min] and by country) to receive either rivaroxaban or placebo. Subjects with a baseline CrCl of ≥50 mL/min were to receive rivaroxaban 10 mg once daily (QD) or placebo QD. A dose adjustment to rivaroxaban 7.5 mg QD was to be implemented for subjects with a baseline CrCl of ≥30 to <50 mL/min. Study drug started at randomization (Day 1) and continued until Day 45 (inclusive). The subject was assessed 30 days later for safety follow-up.
Criteria for Evaluation: This was a clinical outcomes study. The primary efficacy outcome was the composite of all symptomatic VTE events and VTE-related death from randomization up to Day 45. Secondary efficacy outcomes were: VTE-related death; symptomatic VTE; the composite of symptomatic VTE and ACM; the composite of symptomatic VTE, MI, non-hemorrhagic stroke and CV death; and ACM.
The primary and secondary efficacy outcomes were analyzed based on the time from randomization to the first occurrence in the ITT analysis set and Up-to-Day 45 analysis phase. […] A Cox proportional hazards model, stratified by subjects with CrCl ≥30 to <50 mL/min versus subjects with CrCl ≥50 mL/min, with the treatment (as randomized) as the only covariate was used for each analysis. A 2-sided p-value was reported, and if it was less than the 2-sided alpha of 0.05, then superiority of the study drug was to be declared when the observed survival functions favored rivaroxaban. The point estimate and corresponding 95% confidence interval (CI) for the hazard ratio (HR; rivaroxaban to placebo) were provided based on the Cox proportional hazards model. To control the family-wise type I error rate at alpha of 0.05 (2-sided) in testing for efficacy outcomes, if superiority of rivaroxaban over placebo for the primary efficacy outcome was established, superiority of rivaroxaban over placebo on secondary outcomes was tested sequentially using a closed testing procedure in a hierarchical order, each at alpha of 0.05 (2-sided).

[2] = MAGELLAN (Study 1): pharmacokinetics; format: in vivo, human; conditions: for AUC: plasma
Protocol: A subset of approximately 125 subjects was to be stratified into 5 groups (of 25 subjects) based on the major diagnoses. The following pharmacokinetic (PK) parameters were calculated on Day 1 and Day 10: area under the plasma concentration curve (AUC), area under the curve normalized to body weight (AUCnorm), area under the curve for the expected dosing interval obtained after single dose administration (AUCτ), AUCτ, norm, maximum serum concentration (Cmax), maximum and normalized serum concentration (Cmax, norm), time to reach maximum concentration in plasma (tmax), half-life (t1/2), and total body clearance of drug from plasma calculated after oral administration (CL/F).

[3] = Up-to-Day 45, ITT, listed as rivaroxaban
[4] = as reported by the investigator

Compound: O=C(NC[C@H]1CN(c2ccc(N3CCOCC3=O)cc2)C(=O)O1)c1ccc(Cl)s1 [Rivaroxaban, 5-chloro-N-({(5S)-2-oxo-3-[4-(3-oxo-4-morpholinyl)phenyl]-1,3,oxazolidin-5-yl}methyl)-2-thiophenecarboxamide]
- Primary efficacy outcome, HR vs placebo ([1]; 7.5 mg dose stratum): 1.00
- Primary efficacy outcome, RRR vs placebo ([1]; 7.5 mg dose stratum): 0%
- Primary efficacy outcome, incidence ([1]; 7.5 mg dose stratum, Up-to-Day 45, ITT): 1.64%
- Primary efficacy outcome, HR vs placebo ([1]; 10 mg dose stratum): 0.67
- Primary efficacy outcome, RRR vs placebo ([1]; 10 mg dose stratum): 33%
- Primary efficacy outcome, incidence ([1]; 10 mg dose stratum, Up-to-Day 45, ITT): 0.65%
- Rehospitalization for symptomatic VTE within 30 days after randomization, HR vs placebo ([1]; ITT): 0.50
- Rehospitalization for symptomatic VTE within 30 days after randomization, incidence ([1]; ITT): 0.15%
- ACM, event rate ([1]; Up-to-Day 45, ITT): 1.19 100 pt-45 dy
- ACM, hazard ratio (95% CI) vs placebo ([1]; Up-to-Day 45, ITT): 0.80 (0.58, 1.09)
- Composite of symptomatic VTE and ACM, RRR vs placebo ([1]; Up-to-Day 45, ITT): 27%
- Composite of symptomatic VTE and ACM, absolute difference vs placebo ([1]; Up-to-Day 45, ITT): 0.48%
- Composite of symptomatic VTE and ACM, event rate ([1]; Up-to-Day 45, ITT): 1.31 100 pt-45 dy
- Composite of symptomatic VTE and ACM, hazard ratio (95% CI) vs placebo ([1]; Up-to-Day 45, ITT): 0.73 (0.54, 0.97)
- Composite of symptomatic VTE and ACM, n/N (%) ([1]; Up-to-Day 45, ITT): 78/6007 (1.30) %
- Composite of symptomatic VTE, MI, non-hemorrhagic stroke and CV death, event rate ([1]; Up-to-Day 45, ITT): 1.58 100 pt-45 dy
- Composite of symptomatic VTE, MI, non-hemorrhagic stroke and CV death, hazard ratio (95% CI) vs placebo ([1]; Up-to-Day 45, ITT): 0.78 (0.60, 1.02)
- Composite of symptomatic VTE, MI, non-hemorrhagic stroke and CV death, n/N (%) ([1]; Up-to-Day 45, ITT): 94/6007 (1.56) %
- Death (PE cannot be ruled out), event rate ([1]; Up-to-Day 45, ITT): 0.67 100 pt-45 dy
- Death (PE cannot be ruled out), hazard ratio (95% CI) vs placebo ([1]; Up-to-Day 45, ITT): 0.98 (0.63, 1.51)
- Death (PE cannot be ruled out), n/N (%) ([1]; Up-to-Day 45, ITT): 40/6007 (0.67) %
- Death (PE), event rate ([1]; Up-to-Day 45, ITT): 0.05 100 pt-45 dy
- Death (PE), hazard ratio (95% CI) vs placebo ([1]; Up-to-Day 45, ITT): 0.60 (0.14, 2.51)
- Death (PE), n/N (%) ([1]; Up-to-Day 45, ITT): 3/6007 (0.05) %
- MI, HR vs placebo ([1]; Up-to-Day 45, ITT): 1.36
- MI, incidence ([1]; Up-to-Day 45, ITT): 0.25%
- Non-hemorrhagic stroke, HR vs placebo ([1]; Up-to-Day 45, ITT): 0.63
- Non-hemorrhagic stroke, incidence ([1]; Up-to-Day 45, ITT): 0.32%
- Primary efficacy outcome, absolute difference vs placebo ([1]; Up-to-Day 45, ITT): 0.27%
- Primary efficacy outcome, event rate ([1]; Up-to-Day 45, ITT): 0.84 100 pt-45 dy
- Primary efficacy outcome, hazard ratio (95% CI) vs placebo ([1]; Up-to-Day 45, ITT): 0.76 (0.52, 1.09)
- Primary efficacy outcome, relative risk reduction vs placebo ([1]; Up-to-Day 45, ITT): 24%
- Symptomatic VTE (lower extremity DVT and non-fatal PE), n/N (%) ([1]; Up-to-Day 45, ITT): 11/6007 (0.18) %
- Symptomatic VTE, RRR vs placebo ([1]; Up-to-Day 45, ITT): 56%
- Symptomatic VTE, absolute difference vs placebo ([1]; Up-to-Day 45, ITT): 0.24%
- Symptomatic VTE, event rate ([1]; Up-to-Day 45, ITT): 0.19 100 pt-45 dy
- Symptomatic VTE, hazard ratio (95% CI) vs placebo ([1]; Up-to-Day 45, ITT): 0.44 (0.22, 0.89)
- Symptomatic lower extremity DVT, RRR vs placebo ([1]; Up-to-Day 45, ITT): 69%
- Symptomatic lower extremity DVT, absolute difference vs placebo ([1]; Up-to-Day 45, ITT): 0.15%
- Symptomatic lower extremity DVT, event rate ([1]; Up-to-Day 45, ITT): 0.07 100 pt-45 dy
- Symptomatic lower extremity DVT, hazard ratio (95% CI) vs placebo ([1]; Up-to-Day 45, ITT): 0.31 (0.10, 0.94)
- Symptomatic lower extremity DVT, n/N (%) ([1]; Up-to-Day 45, ITT): 4/6007 (0.07) %
- Symptomatic non-fatal PE, event rate ([1]; Up-to-Day 45, ITT): 0.12 100 pt-45 dy
- Symptomatic non-fatal PE, hazard ratio (95% CI) vs placebo ([1]; Up-to-Day 45, ITT): 0.47 (0.19, 1.14)
- Symptomatic non-fatal PE, n/N (%) ([1]; Up-to-Day 45, ITT): 7/6007 (0.12) %
- Symptomatic upper extremity DVT, number (and incidence) ([1]; Up-to-Day 45, ITT): no subject
- VTE-related death, event rate ([1]; Up-to-Day 45, ITT): 0.72 100 pt-45 dy
- VTE-related death, hazard ratio (95% CI) vs placebo ([1]; Up-to-Day 45, ITT): 0.93 (0.62, 1.42)
- VTE-related death, n/N (%) ([1]; Up-to-Day 45, ITT): 43/6007 (0.72) %
- Primary efficacy outcome (symptomatic VTE and VTE-related death), n/N (%) ([1]; Up-to-Day 45, ITT): 50/6007 (0.83) %
- Primary efficacy outcome (symptomatic VTE and VTE-related death), n/N (%) [1, 3]: 0.83%
- ACM, hazard ratio (95% CI) vs placebo [1, 3]: 0.80
- ACM, n/N (%) [1, 3]: 1.18%
- Composite of symptomatic VTE and ACM, hazard ratio (95% CI) vs placebo [1, 3]: 0.73
- Composite of symptomatic VTE and ACM, n/N (%) [1, 3]: 1.30%
- Composite of symptomatic VTE, MI, non-hemorrhagic stroke and CV death, hazard ratio (95% CI) vs placebo [1, 3]: 0.78
- Composite of symptomatic VTE, MI, non-hemorrhagic stroke and CV death, n/N (%) [1, 3]: 1.56%
- Primary efficacy outcome, hazard ratio (95% CI) vs placebo [1, 3]: 0.76
- Symptomatic VTE (lower extremity DVT and non-fatal PE), n/N (%) [1, 3]: 0.18%
- Symptomatic VTE, hazard ratio (95% CI) vs placebo [1, 3]: 0.44
- Symptomatic lower extremity DVT, hazard ratio (95% CI) vs placebo [1, 3]: 0.31
- Symptomatic lower extremity DVT, n/N (%) [1, 3]: 0.07%
- Symptomatic non-fatal PE, hazard ratio (95% CI) vs placebo [1, 3]: 0.47
- Symptomatic non-fatal PE, n/N (%) [1, 3]: 0.12%
- VTE-related death, hazard ratio (95% CI) vs placebo [1, 3]: 0.93
- VTE-related death, n/N (%) [1, 3]: 0.72%
- Primary efficacy outcome, HR vs placebo [1, 4]: 0.40
- Primary efficacy outcome, RRR vs placebo [1, 4]: 60%
- Primary efficacy outcome, absolute difference vs placebo [1, 4]: 0.37%
- Primary efficacy outcome, incidence ([1]; as reported by the investigator (post-hoc sensitivity analysis)): 0.25%
- Cmax ([2]; Day 10, subjects with acute infectious disease): 178.9 ng/mL
- AUC ([2]; human, oral, 10 mg, Day 1, overall, 10 mg): 1640 ng·h/mL
- AUC ([2]; human, oral, 10 mg, Day 10, overall, 10 mg): 1360 ng·h/mL
- AUC ([2]; human, oral, 10 mg, Day 10, subjects with CHF NYHA IV): 1440 ng·h/mL
- AUC ([2]; human, oral, 10 mg, Day 10, subjects with acute infectious disease): 1190 ng·h/mL
- Cmax ([2]; human, serum, oral, 10 mg, Day 1, overall, 10 mg, read-out: Cmax): 176 ng/mL
- Cmax ([2]; human, serum, oral, 10 mg, Day 10, overall, 10 mg, read-out: Cmax): 189 ng/mL
- Cmax ([2]; human, serum, oral, 10 mg, Day 10, subjects with CHF NYHA IV, read-out: Cmax): 192 ng/mL
